We go through eight compounds from PMC10294832, “Investigation of Naphthyl–Polyamine Conjugates as Antimicrobials and Antibiotic Enhancers” (Antibiotics, 2023).

pIC50: −log10 of the molar value. Converted amounts (≈) assume the structure as drawn. “And” between values parts separate entries of the source, which are not always exact repeats. Identical values can stand only once.

The subject of data set [1] is S. aureus (ATCC 25,923 or ATCC 29213). Also noted: method as in PMID 36982955. The following applies: earlier work; cited from earlier work.
For data set [2], the system named is MRSA (ATCC 43300). Also noted: method as in PMID 36982955. Conditions: earlier work; cited from earlier work.
For data set [3], the system named is E. coli (ATCC 25922). Set-up: method as in PMID 36982955. Conditions: earlier work; cited from earlier work.
Data set [4] concerns P. aeruginosa (ATCC 27853). Also noted: method as in PMID 36982955. The following applies: earlier work; cited from earlier work.
For data set [5], the system named is S. aureus (ATCC 25,923 or ATCC 29213). The experiment in a line: Antimicrobial MIC, S. aureus. In kind it is cell-based, Staphylococcus aureus. The following applies: Staphylococcus aureus, mean (n = 3). In a few lines: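 MICs for the […] bacteria came from an in-house susceptibility test run to an earlier published protocol. The yeasts were screened externally at CO-ADD, University of Queensland, under that facility's standard procedures.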

Data set [6] relates to MRSA (ATCC 43300). Description: Antimicrobial MIC, MRSA. In kind it is cell-based, methicillin-resistant Staphylococcus aureus. Conditions: Staphylococcus aureus, MRSA (ATCC 43300); mean (n = 2); read-out: MIC MRSA.
For data set [7], the system named is P. aeruginosa (PAO1 or ATCC 27853). The experiment in a line: Antimicrobial MIC, P. aeruginosa. In kind it is cell-based. Conditions: Pseudomonas aeruginosa; P. aeruginosa (PAO1 or ATCC 27853); mean (n = 3); read-out: MIC P. a. In outline:
(§1)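 Bacteria (E. coli, P. aeruginosa): in-house MIC per prior protocol. Fungi (C. albicans, C. neoformans): CO-ADD, UQ, standard protocol.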

The subject of data set [8] is E. coli (ATCC 25922). The experiment in a line: Antimicrobial MIC, E. coli. The class given is cell-based, Escherichia coli. The following applies: Escherichia coli, ATCC25922, E. coli (ATCC 25922); mean (n = 2). In outline: as §1
Data set [9] has as its system K. pneumoniae (ATCC 700603). Description: Antimicrobial MIC, K. pneumoniae. The class given is cell-based. The following applies: Klebsiella pneumoniae, ATCC700603, mean (n = 2).
Data set [10] has as its system A. baumannii (ATCC 19606). The experiment in a line: Antimicrobial MIC, A. baumannii. The class given is cell-based, Acinetobacter baumannii. The following applies: Acinetobacter baumannii, ATCC19606, A. baumannii (ATCC 19606); mean (n = 2).
Data set [11] has as its system C. albicans (ATCC 90028). Description: Antifungal MIC, C. albicans. The class given is cell-based. The following applies: Candida albicans, ATCC90028, mean (n = 2). In a few lines:
as §1

Data set [12] relates to C. neoformans (ATCC 208821). Description: Antifungal MIC, C. neoformans. Conditions: Cryptococcus neoformans, ATCC208821, C. neoformans (ATCC 208821); mean (n = 2). The class given is cell-based, Cryptococcus neoformans. In a few lines:
as §1

Data set [13] can be described thus: Cytotoxicity assay. In kind it is cell-based, human. The following applies: human, HEK293 human embryonic kidney cells, concentration at 50% cytotoxicity on HEK293 cells; mean (n = 2). On the procedure:
Cytotoxicity assays were conducted using the protocols previously reported.

Data set [14] deals with human red blood cells. The experiment in a line: Hemolytic assay. The class given is cell-based. The following applies: concentration at 10% hemolytic activity on human red blood cells; mean (n = 2). The procedure:
Hemolysis assays were conducted using the protocols previously reported.

Data set [15] relates to P. aeruginosa (ATCC 27853). Description: Enhancement of doxycycline activity. The class given is cell-based, Pseudomonas aeruginosa. Conditions: for Dox/P.a: concentration required to restore doxycycline activity (combination MIC): doxycycline fixed at 4.5 µM (2 µg/mL), P. aeruginosa (ATCC 27853); for Dox/P.a fold change: ratio between intrinsic MIC of test compound and combination MIC, doxycycline 4.5 µM, P. aeruginosa.

Data set [16] relates to E. coli (ATCC 25922). Description: Enhancement of erythromycin activity. The class given is cell-based, Escherichia coli. The following applies: for Eryth/E.c: concentration required to restore erythromycin activity (combination MIC): erythromycin fixed at 10.9 µM (8 µg/mL), E. coli (ATCC 25922); for Eryth/E.c fold change: ratio between intrinsic MIC of test compound and combination MIC, erythromycin 10.9 µM, E. coli. The procedure:
Restoring enhancer concentrations were determined using previously reported protocols.

As to `O=C(CC(c1ccccc1)c1ccccc1)NCCCNCCCCCCCCNCCCNC(=O)CC(c1ccccc1)c1ccccc1` [Compound 6], the “MIC Staphylococcus aureus” value in data set [1] is on record as 3.13 µM (≈ 2.11 µg/mL). Moreover, the “MIC MRSA” value in [2] is at most 0.28 µM. Moreover, the “MIC Escherichia coli” value in data set [3] was 2.2 µM (≈ 1.48 µg/mL). In data set [4], the “MIC in combination, doxycycline vs. P. aeruginosa” value is 12.5 µM and the “fold increase, doxycycline vs. P. aeruginosa” value is given as 4 fold.
Take `O=C(CC(c1ccccc1)(c1ccccc1)c1ccccc1)NCCCNCCCCCCCCNCCCNC(=O)CC(c1ccccc1)(c1ccccc1)c1ccccc1` [Compound 7]: the “MIC Staphylococcus aureus” value in data set [1] is given as 3.13 µM (≈ 2.59 µg/mL). The “MIC MRSA” value in data set [2] was at most 0.24 µM. The “MIC Escherichia coli” value in [3] is recorded as 7.6 µM (≈ 6.29 µg/mL).
By MIC is commonly meant the lowest concentration that inhibits growth of the organism. What is called pIC50 is −log10 of the IC50, conventionally taken in molar units. What is called melting point is the temperature of the solid-liquid transition. `O=C(NCCCNCCCCCCNCCCNC(=O)c1cccc2ccccc12)c1cccc2ccccc12.O=C(O)C(F)(F)F.O=C(O)C(F)(F)F` [Compound 17b, N^1,N^6-Bis(3-(1-naphthamido)propyl)hexane-1,6-diaminium 2,2,2-trifluoroacetate]: the melting point was in the range of 225 to 227 °C. The compound further returned an MIC in data set [5] of 200 µM. Moreover, the MIC in data set [6] was over 41.7 µM. Also, the MIC in data set [7] came to 200 µM. The MIC in [8] was 200 µM. Moreover, the MIC in data set [9] is over 41.7 µM. Moreover, the MIC in data set [10] is over 41.7 µM. Besides, the MIC in [11] was over 41.7 µM. In [12], this compound registered an MIC of over 41.7 µM. Also, the pIC50 in [13] is under 4.38. For the same compound, the “Hemolysis HC10” value in data set [14] was over 41.7 µM. Moreover, in [15], the “Dox/P.a: concentration required to restore doxycycline activity (combination MIC)” value (shortened to “Dox/P.a: concentration required”) worked out at 12.5 µM and the Dox/P.a fold change worked out at 16 fold. Also, in [16], the “Eryth/E.c: concentration required to restore erythromycin activity (combination MIC)” value (“Eryth/E.c: concentration required” below) is given as 100 µM and the Eryth/E.c fold change came out at 2 fold.
Take `O=C(CCC(=O)Nc1ccc(-c2ccccc2)cc1)NCCCNCCCCNCCCNC(=O)CCC(=O)Nc1ccc(-c2ccccc2)cc1.O=C(O)C(F)(F)F.O=C(O)C(F)(F)F` [Compound 21a, N^1,N^4-Bis(3-(4-([1,1’-biphenyl]-4-ylamino)-4-oxobutanamido)propyl)butane-1,4-diaminium 2,2,2-trifluoroacetate]: the melting point fell in the range of 203 to 205 °C. The MIC in data set [5] worked out at 300 µM. Also, the MIC in data set [6] worked out at 0.268 µM. In data set [7], the MIC worked out at 300 µM. Moreover, the MIC in data set [8] turned out to be 300 µM. For the same compound, the MIC in data set [9] is over 34.3 µM. This compound showed an MIC in data set [10] of over 34.3 µM. For the same compound, the MIC in data set [11] is over 34.3 µM. The compound further displayed an MIC in data set [12] of over 34.3 µM. In addition, in data set [13], the pIC50 is under 4.46. The “Hemolysis HC10” value in data set [14] was found to be 31.4 µM. Further, in data set [15], the “Dox/P.a: concentration required” value is recorded as 300 µM and the Dox/P.a fold change is listed as 1 fold. Moreover, in data set [16], the “Eryth/E.c: concentration required” value stood at 300 µM and the Eryth/E.c fold change is reported as 1 fold.
`O=C(CCC(=O)Nc1ccc(-c2ccccc2)cc1)NCCCNCCCCCCNCCCNC(=O)CCC(=O)Nc1ccc(-c2ccccc2)cc1.O=C(O)C(F)(F)F.O=C(O)C(F)(F)F` [Compound 21b, N^1,N^6-Bis(3-(4-([1,1’-biphenyl]-4-ylamino)-4-oxobutanamido)propyl)hexane-1,6-diaminium 2,2,2-trifluoroacetate] returned a melting point of 200 to 202 °C. This compound also had an MIC in data set [5] of 300 µM. Further, the minimum inhibitory concentration (MIC) in data set [6] stood at 2.08 µM. Also, the MIC in data set [7] is 300 µM. For the same compound, in [8], the MIC came to 300 µM. The MIC in data set [9] was over 33.3 µM. This compound also showed an MIC in data set [10] of over 33.3 µM. The MIC in data set [11] was over 33.3 µM. Moreover, the MIC in data set [12] was over 33.3 µM. Moreover, the pIC50 in [13] is under 4.48. Also, in data set [14], the “Hemolysis HC10” value is recorded as over 33.3 µM. In data set [15], the “Dox/P.a: concentration required” value is given as 300 µM and the Dox/P.a fold change came to 1 fold. In addition, in [16], the “Eryth/E.c: concentration required” value was 300 µM and the Eryth/E.c fold change is listed as 1 fold.
`O=C(CCC(=O)Nc1ccc(-c2ccccc2)cc1)NCCCNCCCCCCCNCCCNC(=O)CCC(=O)Nc1ccc(-c2ccccc2)cc1.O=C(O)C(F)(F)F.O=C(O)C(F)(F)F` [Compound 21c, N^1,N^7-Bis(3-(4-([1,1’-biphenyl]-4-ylamino)-4-oxobutanamido)propyl)heptane-1,7-diaminium 2,2,2-trifluoroacetate] yielded a melting point of 178 to 180 °C. In [5], the MIC turned out to be 200 µM. Moreover, in [6], the MIC amounted to 0.256 µM. Further, in [7], the MIC was found to be 300 µM. In data set [8], this compound yielded an MIC of 300 µM. For the same compound, in data set [9], the MIC is over 32.8 µM. The MIC in data set [10] was over 32.8 µM. In [11], this compound came in with an MIC of over 32.8 µM. Also, the minimal inhibitory concentration (MIC) in [12] was over 32.8 µM. In data set [13], this compound showed a pIC50 of under 4.48. In addition, the “Hemolysis HC10” value in [14] is recorded as over 32.8 µM. Moreover, in data set [15], the “Dox/P.a: concentration required” value was 300 µM and the Dox/P.a fold change is 1 fold. Besides, in data set [16], the “Eryth/E.c: concentration required” value was 300 µM and the Eryth/E.c fold change is listed as 1 fold.
`O=C(CCC(=O)Nc1ccc(-c2ccccc2)cc1)NCCCNCCCCCCCCNCCCNC(=O)CCC(=O)Nc1ccc(-c2ccccc2)cc1.O=C(O)C(F)(F)F.O=C(O)C(F)(F)F` [Compound 21d, N^1,N^8-Bis(3-(4-([1,1’-biphenyl]-4-ylamino)-4-oxobutanamido)propyl)octane-1,8-diaminium 2,2,2-trifluoroacetate] displayed a melting point of 182 to 184 °C. Moreover, the MIC in data set [5] was 300 µM. Also, in [6], the MIC was determined as 0.506 µM. Further, in [7], the MIC was determined as 300 µM. In addition, the MIC in data set [8] is 300 µM. In data set [9], this compound returned an MIC of over 32.4 µM. In addition, in [10], the MIC is over 32.4 µM. The compound also displayed an MIC in [11] of over 32.4 µM. This compound also gave an MIC in [12] of over 32.4 µM. This compound also gave a pIC50 in data set [13] of under 4.49. Moreover, in [14], the “Hemolysis HC10” value is on record as over 32.4 µM. In [15], the “Dox/P.a: concentration required” value is on record as 300 µM and the Dox/P.a fold change is 1 fold. In addition, in [16], the “Eryth/E.c: concentration required” value was determined as 300 µM and the Eryth/E.c fold change was determined as 1 fold.
With `O=C(CCC(=O)Nc1ccc(-c2ccccc2)cc1)NCCCNCCCCCCCCCCNCCCNC(=O)CCC(=O)Nc1ccc(-c2ccccc2)cc1.O=C(O)C(F)(F)F.O=C(O)C(F)(F)F` [Compound 21e, N^1,N^10-Bis(3-(4-([1,1’-biphenyl]-4-ylamino)-4-oxobutanamido)propyl)decane-1,10-diaminium 2,2,2-trifluoroacetate], the melting point lay within 184 to 186 °C. The MIC in [5] was found to be 300 µM. Further, in data set [6], the MIC is 0.246 µM. Also, in data set [7], the MIC was 300 µM. In addition, in data set [8], the MIC was found to be 300 µM. In [9], this compound came in with an MIC of over 31.5 µM. This compound returned an MIC in data set [10] of over 31.5 µM. In addition, the MIC in data set [11] came to 31.5 µM. In data set [12], this compound returned an MIC of 15.7 µM. Also, in [13], the pIC50 was under 4.50. Moreover, in data set [14], the “Hemolysis HC10” value is 6.3 µM and 6.32 µM. In [15], the “Dox/P.a: concentration required” value was determined as 300 µM and the Dox/P.a fold change is on record as 1 fold. In [16], the “Eryth/E.c: concentration required” value is 300 µM and the Eryth/E.c fold change is given as 1 fold.
